Data as given in US20160137714A1 (Thrasos Innovation, Inc., priority 2014, published 2016).
“Also recorded” adds a separate entry of the source. No end group written: not given here.

Assays:
[1] = fresh mouse or rat plasma; details: 37° C., up to 120 min (Table 6; protocol lists up to 1440)
[2] = system: Adriamycin (ADR)-induced proteinuria; experiment: Adriamycin (ADR)-induced nephropathy model; format: in vivo; details: rat
Text: Adriamycine (doxorubicin) is a drug used in chemotherapy. It is known to cause undesirable renal toxicitiy in rat, mainly glomerular damage (via podocyte injury/loss), resulting in proteinuric neophrapthy (Hakroush et al., 2014, J. Am. Soc. Nephrology, 25:927-38), and it is the prototypical model of human primary focal and segmental glomerulosclerosis. ADR-induced mephropathy, in mouse or rat, is a robust in vivo model of proteinuria that can easily and directly be measured in urine, thus allowing for monitoring of disease progression in living animals. It is induced by a single intravenous injection of ADR.
Male CD rats (aged 8 weeks) were acclimatized in the facility for at least 5 days. On Day 0, rats received Adriamycin at a dose level of 7.5 mg/kg by tail vein administration at a dose volume of 5 mL/kg. If needed, an abbocath was used for administration. The abbocath will be flushed with 0.5 mL of 0.9% saline after Adriamycin injection. […]
Once pretreatment and on pre-determined days (e.g. days 5, 10, 15, 20) blood samples (0.7 mL) was collected from the jugular vein in SST tubes and analyzed for serum creatinine and BUN. Once pretreatment and on pre-determined days (e.g. days 5, 10, 15, 20) urine samples were collected overnight from individually housed animals. After collection, serum and urine samples were processed and analyzed for creatinine (serum & urine), BUN (serum) and total protein (urine). […] The time the animals are placed in urine collection cages and time of sample collection was recorded. […]
Once pretreatment and on Day 21, blood samples (0.7 mL) were collected from the jugular vein in SST tubes and analyzed for serum creatinine and BUN. Once pretreatment and on pre-determined days (Days 5, 10, 15, 21) urine samples were collected overnight from individually housed animals. After collection, serum and urine samples were processed and analyzed for creatinine (serum & urine), BUN (serum) and total protein (urine). […] The time the animals are placed in urine collection cages and time of sample collection was recorded. […]

[3] = rat kidney tissue 10 minutes post IV administration; details: up to 10 minutes
[4] = plasma after s.c. administration of 1 mg/kg Compound III; after IV administration
FIGURE 31 (2/2) = experiment: FIGURE 31 (2/2)
Description: Table printed on a drawing sheet, FIGURE 31 (2/2)
Peptide to internal standard peak area ratios were used calculate percentage remaining peptide at 60 minutes and 120 minutes. Peptides are identified by GPR number (GPR#) and SEQ ID NO.
First reader's note: Second part (2/2) of Figure 31, continued from the previous sheet; in the last row (GPR 478) the empty N-Terminal cell is merged with position 1.

Cys-Tyr-Tyr-Asp-Asp-Ser-Ser-Ser-Val-Leu-Cys-Lys-Lys-D-tyr-Arg-Ser
not cleaved [1]: 94.7 percent remaining at 120 min

CCOC(=O)[C@H](CCc1ccccc1)N[C@@H](C)C(=O)N1CCC[C@H]1C(=O)O [Enalapril]
ADR-induced renal lesions in H&E-stained kidney sections ([2]; 21 days post ADR, treated daily, glomerular hypertrophy, protein casts, tubular dilation, neutrophils): absent or reduced in number | effect on ADR-induced proteinuria (urine protein to urine creatinine) ([2]; ADR 7.5 mg/kg, daily for 21 days, GPR-405 300 nmol/kg sc, enalapril 50 mg/kg po): efficacious | effect on serum creatinine (sCr) and blood urea nitrogen (BUN) ([2]; following Adriamycin treatment, GPR-405 300 nmol/kg sc, enalapril 50 mg/kg po, FIG. 24): Neither enalapril nor GPR-405 had any marked effect

CYFDDSSNVLCKKYRS (cysteine pairing not given here)
cleaved bond [3]: Y14-R15, major, 10 minutes | fragment found [3]: VI (GPR-263) Cys-Tyr-Phe-Asp-Asp-Ser-Ser-Asn-Val-Leu-Cys, 10 minutes; also recorded: VIII (GPR-262) Cys-Tyr-Phe-Asp-Asp-Ser-Ser-Asn-Val-Leu-Cys-Lys, 10 minutes; also recorded: IX (GPR-261) Cys-Tyr-Phe-Asp-Asp-Ser-Ser-Asn-Val-Leu-Cys-Lys-Lys, 10 minutes

Cys-Tyr-Phe-Asp-Asp-Ser-Ser-Asn-Val-Leu-Cys-Lys-Lys-D-tyr-Arg-Ser
not cleaved [4]: prevented the proteolytic cleavage between the amino acids 14 and 15

Y Y F S S S F V L C K R y* R S [478 | 68]
% Remaining at 60 and 120 minutes | 60 (FIGURE 31 (2/2)): 87.7% | % Remaining at 60 and 120 minutes | 120 (FIGURE 31 (2/2)): 78.9%
